Assay results from patent US20180265515A1 (Genentech, Inc., priority 2015, published 2018).

How the values were obtained:
[1] = molecular target: T1, isolated recombinant JAK1 kinase domain (Homo sapiens, UniProt P23458); assay: JAK1 enzyme assay (Caliper LabChip, Ki); assay type: biochemical; conditions: recombinant JAK1 kinase domain, 25 μM ATP
T1 construct: The activity of the isolated recombinant JAK1 and JAK2 kinase domain was measured
Procedure, shortened: (§1)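 Ki values fitted with Morrison tight-binding equation adjusted for ATP-competitive inhibition, using product-to-total peptide ratio read by Caliper LabChip. Reactions: isolated JAK1 or JAK2 kinase domain with N-terminal 5-carboxyfluorescein JAK3-derived peptide, 22° C for 30 min, quenched by EDTA.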

[2] = molecular target: T2, isolated recombinant JAK2 kinase domain (Homo sapiens, UniProt O60674); assay: JAK2 enzyme assay (Caliper LabChip, Ki); assay type: biochemical; conditions: 25 μM ATP
T2 construct: The activity of the isolated recombinant JAK1 and JAK2 kinase domain was measured
T2 sequence (O60674 849-1124 limits assumed): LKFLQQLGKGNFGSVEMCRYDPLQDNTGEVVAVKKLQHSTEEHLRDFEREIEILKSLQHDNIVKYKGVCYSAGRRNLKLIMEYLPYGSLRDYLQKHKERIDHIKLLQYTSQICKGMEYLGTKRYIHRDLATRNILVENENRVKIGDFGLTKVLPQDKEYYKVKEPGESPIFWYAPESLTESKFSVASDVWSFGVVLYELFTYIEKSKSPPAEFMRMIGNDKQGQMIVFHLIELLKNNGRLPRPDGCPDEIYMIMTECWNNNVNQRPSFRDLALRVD
Procedure, shortened: as §1

[3] = tested on: JAK1-dependent STAT6 phosphorylation downstream of IL-13 stimulation in BEAS-2B human bronchial epithelial cells; assay: JAK1 pathway assay in BEAS-2B cells (IL-13 stimulated STAT6 phosphorylation, MSD); assay type: cell-based; conditions: read-out: P-STAT6 BEAS2B + IL13 IC50
Procedure, shortened: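 BEAS-2B human bronchial epithelial cells, plated the day before in complete growth medium, were preincubated with compound for 1 hr at 37° C (0.2% DMSO final), then stimulated with IL-13 at its EC90 for 15 min. STAT6 phosphorylation in lysates was read by MSD; EC50 was taken as 50% inhibition versus DMSO control.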

T1 sequence (P23458 875-1153 limits assumed): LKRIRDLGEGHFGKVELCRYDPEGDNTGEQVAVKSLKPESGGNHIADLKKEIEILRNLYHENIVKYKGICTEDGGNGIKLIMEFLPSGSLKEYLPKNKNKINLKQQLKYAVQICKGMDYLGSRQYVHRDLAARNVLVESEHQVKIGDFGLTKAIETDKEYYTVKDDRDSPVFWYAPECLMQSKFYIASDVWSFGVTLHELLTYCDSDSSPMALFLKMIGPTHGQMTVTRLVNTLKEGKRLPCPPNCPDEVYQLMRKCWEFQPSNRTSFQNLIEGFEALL

| Ki [1] | Ki [2] | SMILES | IC50 [3] |
| --- | --- | --- | --- |
| 0.38 nM | 0.85 nM | CC(C)Sc1ccc(OC(F)F)c(-c2nn(CC(=O)N3CCC(N4CCOCC4)CC3)cc2NC(=O)c2cnn3cccnc23)c1 [Example 102, N-[3-[2-(difluoromethoxy)-5-isopropylsulfanyl-phenyl]-1-[2-(4-morpholino-1-piperidyl)-2-oxo-ethyl]pyrazol-4-yl]pyrazolo[1,5-a]pyrimidine-3-carboxamide] | 20 nM |
| 0.33 nM | 0.75 nM | CC(C)Sc1ccc(OC(F)F)c(-c2nn(CC(=O)N3CCN(CCCC#N)CC3)cc2NC(=O)c2cnn3cccnc23)c1 [Example 103, N-[1-[2-[4-(3-cyanopropyl)piperazin-1-yl]-2-oxo-ethyl]-3-[2-(difluoromethoxy)-5-isopropylsulfanyl-phenyl]pyrazol-4-yl]pyrazolo[1,5-a]pyrimidine-3-carboxamide] | 41 nM |
| 0.42 nM | 1.2 nM | CC(C)Sc1ccc(OC(F)F)c(-c2nn(CC(=O)N3CCC(NCC(=O)N(C)C)CC3)cc2NC(=O)c2cnn3cccnc23)c1 [Example 104, N-[3-[2-(difluoromethoxy)-5-isopropylsulfanyl-phenyl]-1-[2-[4-[[2-(dimethylamino)-2-oxo-ethyl]amino]-1-piperidyl]-2-oxo-ethyl]pyrazol-4-yl]pyrazolo[1,5-a]pyrimidine-3-carboxamide] | 160 nM |
| 0.43 nM | 1.3 nM | CC(C)Sc1ccc(OC(F)F)c(-c2nn(CC(=O)N3CCC(N(C)CC(=O)N(C)C)CC3)cc2NC(=O)c2cnn3cccnc23)c1 [Example 105, N-[3-[2-(difluoromethoxy)-5-isopropylsulfanyl-phenyl]-1-[2-[4-[[2-(dimethylamino)-2-oxo-ethyl]-methyl-amino]-1-piperidyl]-2-oxo-ethyl]pyrazol-4-yl]pyrazolo[1,5-a]pyrimidine-3-carboxamide] | 72 nM |
| 0.4 nM | 0.79 nM | CC(C)Sc1ccc(OC(F)F)c(-c2nn(CC(=O)N3CCC(N4CCN(C)C(=O)C4)CC3)cc2NC(=O)c2cnn3cccnc23)c1 [Example 106, N-[3-[2-(difluoromethoxy)-5-isopropylsulfanyl-phenyl]-1-[2-[4-(4-methyl-3-oxo-piperazin-1-yl)-1-piperidyl]-2-oxo-ethyl]pyrazol-4-yl]pyrazolo[1,5-a]pyrimidine-3-carboxamide] | 110 nM |
| 0.75 nM | 1.7 nM | CC(C)Sc1ccc(OC(F)F)c(-c2nn(CC(=O)N3CCC(N4CCCC(C#N)C4)CC3)cc2NC(=O)c2cnn3cccnc23)c1 (stereo not drawn) [Example 107, N-[1-[2-[4-(3-cyano-1-piperidyl)-1-piperidyl]-2-oxo-ethyl]-3-[2-(difluoromethoxy)-5-isopropylsulfanyl-phenyl]pyrazol-4-yl]pyrazolo[1,5-a]pyrimidine-3-carboxamide] | 56 nM |
| 0.37 nM | 0.94 nM | CC(C)Sc1ccc(OC(F)F)c(-c2nn(CC(=O)N3CCC(N4CCNC(=O)C4)CC3)cc2NC(=O)c2cnn3cccnc23)c1 [Example 108, N-[3-[2-(difluoromethoxy)-5-isopropylsulfanyl-phenyl]-1-[2-oxo-2-[4-(3-oxopiperazin-1-yl)-1-piperidyl]ethyl]pyrazol-4-yl]pyrazolo[1,5-a]pyrimidine-3-carboxamide] | 850 nM |
| 0.41 nM | 0.78 nM | CC(C)Sc1ccc(OC(F)F)c(-c2nn(CC(=O)N3CCN(CCN4CCOCC4)CC3)cc2NC(=O)c2cnn3cccnc23)c1 [Example 109, N-[3-[2-(difluoromethoxy)-5-isopropylsulfanyl-phenyl]-1-[2-[4-(2-morpholinoethyl)piperazin-1-yl]-2-oxo-ethyl]pyrazol-4-yl]pyrazolo[1,5-a]pyrimidine-3-carboxamide] | 33 nM |
| 0.41 nM | 1 nM | CC(C)Sc1ccc(OC(F)F)c(-c2nn(CC(=O)N3CCC(N(C)C4COC4)CC3)cc2NC(=O)c2cnn3cccnc23)c1 [Example 110, N-[3-[2-(difluoromethoxy)-5-isopropylsulfanyl-phenyl]-1-[2-[4-[methyl(oxetan-3-yl)amino]-1-piperidyl]-2-oxo-ethyl]pyrazol-4-yl]pyrazolo[1,5-a]pyrimidine-3-carboxamide] | 27 nM |
| 0.38 nM | 1 nM | CC(C)Sc1ccc(OC(F)F)c(-c2nn(CC(=O)N3CCC(N4CCSCC4)CC3)cc2NC(=O)c2cnn3cccnc23)c1 [Example 111, N-[3-[2-(difluoromethoxy)-5-isopropylsulfanyl-phenyl]-1-[2-oxo-2-(4-thiomorpholino-1-piperidyl)ethyl]pyrazol-4-yl]pyrazolo[1,5-a]pyrimidine-3-carboxamide] | 19 nM |
| 0.39 nM | 0.39 nM | CC(C)Sc1ccc(OC(F)F)c(-c2nn(CCN)cc2NC(=O)c2cnn3cccnc23)c1 [Example 112, N-[1-(2-aminoethyl)-3-[2-(difluoromethoxy)-5-isopropylsulfanyl-phenyl]pyrazol-4-yl]pyrazolo[1,5-a]pyrimidine-3-carboxamide] | 18 nM |
| 0.64 nM | 0.78 nM | CC(C)Sc1ccc(OC(F)F)c(-c2nn(C[C@H]3CCCN3)cc2NC(=O)c2cnn3cccnc23)c1 [Example 113, N-[3-[2-(difluoromethoxy)-5-isoproplsulfanyl-phenyl]-1-[[(2R)-pyrrolidin-2-yl]methyl]pyrazol-4-yl]pyrazolo[1,5-a]pyrimidine-3-carboxamide] | 20 nM |
| 1.6 nM | 3.9 nM | CC(C)Sc1ccc(OC(F)F)c(-c2nn(CC(=O)N3CCC(CN4CCN(CC(=O)N(C)C)CC4)CC3)cc2NC(=O)c2cnn3cccnc23)c1 [Example 114, N-[3-[2-(difluoromethoxy)-5-isopropylsulfanyl-phenyl]-1-[2-[4-[[4-[2-(dimethylamino)-2-oxo-ethyl]piperazin-1-yl]methyl]-1-piperidyl]-2-oxo-ethyl]pyrazol-4-yl]pyrazolo[1,5-a]pyrimidine-3-carboxamide] | 55 nM |
| 0.65 nM | 1.6 nM | CC(C)Sc1ccc(OC(F)F)c(-c2nn(CC(=O)N3CCC(NCC4(C#N)CC4)CC3)cc2NC(=O)c2cnn3cccnc23)c1 [Example 115, N-[1-[2-[4-[(1-cyanocyclopropyl)methylamino]-1-piperidyl]-2-oxo-ethyl]-3-[2-(difluoromethoxy)-5-isopropylsulfanyl-phenyl]pyrazol-4-yl]pyrazolo[1,5-a]pyrimidine-3-carboxamide] | 34 nM |
| 0.51 nM | 1 nM | COCCN1CCN(C(=O)Cn2cc(NC(=O)c3cnn4cccnc34)c(-c3cc(SC(C)C)ccc3OC(F)F)n2)CC1 [Example 116, N-[3-[2-(difluoromethoxy)-5-isopropylsulfanyl-phenyl]-1-[2-[4-(2-methoxyethyl)piperazin-1-yl]-2-oxo-ethyl]pyrazol-4-yl]pyrazolo[1,5-a]pyrimidine-3-carboxamide] | 26 nM |
| 0.7 nM | 1.4 nM | CC(C)Sc1ccc(OC(F)F)c(-c2nn(CC(=O)N3CCN(C)CC3)cc2NC(=O)c2cnn3cccnc23)c1 [Example 117, N-[3-[2-(difluoromethoxy)-5-isopropylsulfanyl-phenyl]-1-[2-(4-methylpiperazin-1-yl)-2-oxo-ethyl]pyrazol-4-yl]pyrazolo[1,5-a]pyrimidine-3-carboxamide] | 21 nM |
| 0.6 nM | 1.8 nM | CC(C)Sc1ccc(OC(F)F)c(-c2nn(CC(=O)N3CCC(N4CCN(C)CC4)CC3)cc2NC(=O)c2cnn3cccnc23)c1 [Example 118, N-[3-[2-(difluoromethoxy)-5-isopropylsulfanyl-phenyl]-1-[2-[4-(4-methylpiperazin-1-yl)-1-piperidyl]-2-oxo-ethyl]pyrazol-4-yl]pyrazolo[1,5-a]pyrimidine-3-carboxamide] | 40 nM |
| 0.47 nM | 0.96 nM | CC(C)Sc1ccc(OC(F)F)c(-c2nn(CC(=O)N3CCN(C4CCSCC4)CC3)cc2NC(=O)c2cnn3cccnc23)c1 [Example 119, N-[3-[2-(difluoromethoxy)-5-isopropylsulfanyl-phenyl]-1-[2-oxo-2-(4-tetrahydrothiopyran-4-ylpiperazin-1-yl)ethyl]pyrazol-4-yl]pyrazolo[1,5-a]pyrimidine-3-carboxamide] | 30 nM |
| 0.4 nM | 1.2 nM | CC(C)Sc1ccc(OC(F)F)c(-c2nn(CC(=O)N3CCC(NCC(C)(C)C#N)CC3)cc2NC(=O)c2cnn3cccnc23)c1 [Example 120, N-[1-[2-[4-[(2-cyano-2-methyl-propyl)amino]-1-piperidyl]-2-oxo-ethyl]-3-[2-(difluoromethoxy)-5-isopropylsulfanyl-phenyl]pyrazol-4-yl]pyrazolo[1,5-a]pyrimidine-3-carboxamide] | 27 nM |
| 0.7 nM | 1.3 nM | CCN1CCN(C(=O)Cn2cc(NC(=O)c3cnn4cccnc34)c(-c3cc(SC(C)C)ccc3OC(F)F)n2)CC1 [Example 121, N-[3-[2-(difluoromethoxy)-5-isopropylsulfanyl-phenyl]-1-[2-(4-ethylpiperazin-1-yl)-2-oxo-ethyl]pyrazol-4-yl]pyrazolo[1,5-a]pyrimidine-3-carboxamide] | 31 nM |
